Data reported in article PMC10374545, “A small molecule inhibitor of PTP1B and PTPN2 enhances T cell anti-tumor immunity” (Nature Communications, 2023).
“And” between values parts separate entries of the source, which are not always exact repeats. Identical values can stand only once.

How the values were obtained:
OT-I CD8+ T cells [1] = assay: T cell proliferation (CTV dilution); format: cell-based, mouse; parameters: CTV, single replicates / CTV, mean of differences (D - C): unit not given here; conditions: for CTV, single replicates: N4 0.5 nM, 1 μM, 3 days, Fig. 2C raw data
Description: For analyzing cellular proliferation in vitro, single-cell suspensions from lymph nodes of wild type (OT-I;Ptpn2^fl/fl) or PTPN2-deficient (OT-I;Lck-Cre;Ptpn2^fl/fl) mice were stained with 2 μM CellTrace^TM Violet (CTV; Molecular Probes, Thermo Fisher Scientific) in PBS supplemented with 0.1% (v/v) FBS for 20 min at 37 °C. […] On day 3, OT-I cells were harvested and CTV dilution was monitored by flow cytometry. For cell number quantification, known numbers of Flow-Count Fluorospheres (Beckman Coulter) were added to samples before analysis.

NK cells = assay: NK cell activation (IFN-γ+, CD107A+) by cytokines or α-NK1.1/α-Ly49H; format: cell-based, mouse; conditions: cytokines or crosslinking NK1.1, Ly49H
Description: proliferation in vitro. a-b) NK cells from C57BL/6 male mice (n=3 per group) were expanded […]
µg/ml) or vehicle (1% v/v DMSO) in the absence of IL-15. a) NK cells were re-stimulated for 15 min with the indicated amounts of IL-15 and Y694 phosphorylated STAT-5 (p-STAT-5) mean fluorescence intensities (MFIs) determined by flow cytometry. b) Alternatively, NK cells were stained with carboxyfluorescein succinimidyl ester (CFSE, Invitrogen) and then re-stimulated with the indicated amounts of IL-15 for 96 h and NK cell proliferation (CFSE dilution) monitored by flow cytometry. c-d) NK cells from C57BL/6 male mice (n=3 per group) were expanded ex vivo in the presence of IL-15 and then pre-treated with CMP-182 (0.1 or 1 µg/ml) or vehicle in the absence of IL-15. NK cells were re-stimulated with either IL-12 (10 ng/ml) or IL-18 (100 ng/ml) or with α-NK1.1 or α-Ly49H for 4 h. NK cells were maintained in 10 ng/ml IL-15 throughout the 4 h incubation time. Percentages of c) IFN-γ+ and d) CD107A+ NK cells were determined by flow cytometry. In (a-d) results shown are means ± SEM and are representative of at least two independent experiments.

spleen = assay: Spleen weight, splenocytes and splenic CD8+ EM T cell signaling in AT3-OVA tumor-bearing mice; format: in vivo, mouse
Description: (§1) Single-cell suspensions from spleens and lymph nodes were obtained as described previously. For the detection of intracellular cytokines and granzyme B, T cells were fixed and permeabilized with the BD Cytofix/Cytoperm kit according to the manufacturer’s instructions. Briefly, T cells were first surface stained with fluorophore-conjugated antibodies and then fixed followed by permeabilization on ice for 20 min. Fixed and permeabilized cells were stained for IFN-γ, TNF, and granzyme B for 45 min at room temperature. For the detection of intracellular FoxP3 the Foxp3/Transcription Factor Staining Buffer Set (eBioscience) was used according to the manufacturer’s instructions. Briefly, cells were fixed and permeabilized for 1 h on ice followed by intracellular staining at room temperature for 45 min. For the detection of serum cytokines, the BD CBA Mouse Inflammation Kit™ was used according to the manufacturers’ instructions.
Cells (1 × 10^6/10 µl) were stained with the specified antibodies on ice for 30 min in D-PBS supplemented with 2% FBS in the dark and analyzed using a Fortessa or Symphony A3 (BD Biosciences). Data was acquired using BD FACS DIVA Software v8.0.1 and analyzed using FlowJo10 (Tree Star Inc.) software. Lymphocytes were gated for eYFP^+ cells to discriminate between PTPN2 sufficient and PTPN2 negative cells after poly(I:C)-induced PTPN2-deletion in Mx1-Cre;Ptpn2^fl/fl mice. For cell quantification, known numbers of Flow-Count Fluorospheres (Beckman Coulter) were added to samples before analysis. Dead cells were excluded with propidium iodide (1 μg/ml; Sigma-Aldrich). Paraformaldehyde fixed dead cells were excluded with the LIVE/DEAD™ Fixable Near-IR Dead Cell Stain Kit (Thermo Fisher Scientific).
OVA mammary tumor cells were injected into the fourth inguinal mammary fat pads of 8 week- […]
n=8) or saline (n=8) on days (d) 6, 8, 10, 12, 14, 16, 18 and 21 after tumor cell implantation. […]
CD44hiCD62Llo CD8+ and CD4+ effector/memory (EM) T cells, CD4+CD25+FoxP3+ regulatory T cells (Tregs) and granulocytic and monocytic […]
CD8+ and CD4+ EM T cells were analysed by flow cytometry. In (a-d) representative results (means ± SEM) from at least two independent experiments are shown. In (d) significances were determined using a 1-way ANOVA Test.

OT-I CD8+ T cells [2] = assay: Intracellular IFNγ, TNF and Granzyme B in activated OT-I T cells; format: cell-based, mouse; parameters: Grzmb, single replicates / IFN TNF, single replicates / IFN TNF, column mean / Grzmb, difference between medians: Actual / Grzmb, difference between medians: Hodges-Lehmann / IFN TNF, group mean (Mean 2): unit not given here; conditions: for IFN TNF, group mean (Mean 2): N 6
Description: as §1
For the detection of intracellular IFNγ, TNF and Granzyme B, single-cell suspensions were obtained from lymph nodes of wild type (OT-I;Ptpn2^fl/fl) or PTPN2-deficient (OT-I;Lck-Cre;Ptpn2^fl/fl) mice and stimulated with 1 nM N4 peptide for 16 h and rested in complete T cell media supplemented with IL-2 (5 ng/ml) and IL-7 (0.2 ng/ml) for 2 days. […] Cells were then stained with fluorophore-conjugated antibodies to cell surface CD8 and intracellular IFNγ, TNF, and Granzyme B and analyzed by flow cytometry.

[3] = splenic CD8+ EM T cells, 10 mg/kg i.v., Fig. 3E raw data, listed as CMP-182, 10 mg/kg
[4] = N4 1nM, 1 μM, Fig. 2B raw data, listed as CMP-182

CC(C)(O)CCOc1ccc2cc(O)c(N3CC(=O)NS3(=O)=O)c(F)c2c1 [Compound 182, 5-(1-Fluoro-3-hydroxy-7-(3-hydroxy-3-methylbutoxy)naphthalen-2-yl)−1,2,5-thiadiazolidin-3-one 1,1-dioxide]
OT-I CD8+ T cell proliferation/expansion (CTV dilution) (OT-I CD8+ T cells [1]): marked increases | CTV, mean of differences (D - C) (OT-I CD8+ T cells [1]; 2KI vs. 2K, day 3, 4 pairs, Fig. 2C): 23.93 | CTV, single replicates (OT-I CD8+ T cells [1]; Lck-Cre;Ptpn2fl/fl (2K) OT-I cells, listed as 2KI): 82.8 and 89.7 and 89.6 and 74.7 | CTV, mean of differences (B - A) (OT-I CD8+ T cells [1]; WTI vs. WT, day 3, 4 pairs, Fig. 2C): 27.74 | CTV, single replicates (OT-I CD8+ T cells [1]; wild type OT-I cells, listed as WTI): 38.7 and 58 and 84.3 and 62.7 | NK cell activation (IFNγ or CD107A expressing cells) (NK cells): nor did it affect | basal p-SFK and p-STAT-5 in splenic CD8+ effector/memory T cells (spleen; 10 mg/kg i.v.): enhanced | spleen weights and splenic T cell and myeloid numbers (spleen; AT3-OVA tumor-bearing mice, 10 mg/kg i.v.): unaltered | B cells Spleen (median) (spleen; Figure 3C, column B, n=8): 1202070, n=8 | Nk cells Spleen (median) (spleen; Figure 3C, column B, n=8): 1062533, n=8 | pSFK CD8 EM (median) (spleen; Figure 3E, column B, n=8): 356.5, n=8 | pSTAT5 CD8 EM (median) (spleen; Figure 3E, column B, n=8): 960.5, n=8 | p-SFK MFIs, single mice (spleen; [3]): 362 and 359 and 441 and 347 and 414 and 282 and 298 and 354 | p-STAT-5 MFIs, single mice (spleen; [3]): 1043 and 825 and 973 and 931 and 1046 and 926 and 948 and 1137 | Grzmb, difference between medians: Actual (OT-I CD8+ T cells [2]; CMP-182 vs. DMSO, N4, Fig. 2B): 672.5 | Grzmb, difference between medians: Hodges-Lehmann (OT-I CD8+ T cells [2]; CMP-182 vs. DMSO, N4, Fig. 2B): 741.5 | Grzmb, single replicates (OT-I CD8+ T cells [2]; [4]): 3755 and 3056 and 3282 and 3899 and 3113 and 2884 | IFN TNF, single replicates (OT-I CD8+ T cells [2]; [4]): 32.6 and 31.1 and 31 and 36.2 and 30.7 and 32.8 | IFN TNF, group mean (Mean 2) (OT-I CD8+ T cells [2]; N4 1nM, Fig. 2B): 32.4 | Grzmb, median of column B (OT-I CD8+ T cells [2]; N4, n=6, Fig. 2B): 3198, n=6 | expression of Granzyme B, IFNγ and TNF (OT-I CD8+ T cells [2]; OT-I CD8+ T cells): increased expression | IFN TNF, single replicates (OT-I CD8+ T cells [2]; Vehicle (no N4), 1 μM, Fig. 2B raw data, listed as CMP-182): 0.038 and 0.03 and 0.037 and 0.066 and 0.023 (2×) | IFN TNF, group mean (Mean 2) (OT-I CD8+ T cells [2]; Vehicle (no N4), Fig. 2B): 0.03617 | IFN TNF, column mean (OT-I CD8+ T cells [2]; mean over Vehicle and N4 1nM rows, two-way ANOVA, Fig. 2B): 16.22
